As usually defined, the Ki is a measure of affinity in units of concentration, obtained from inhibition or displacement.

Experimental findings from US9062078B2, “Substituted 7-azabicyles and their use as orexin receptor modulators” (priority 2013, dated 2015) are described below.

The structures appear in SMILES notation. Read-outs that look alike come from different tables or passages of the source.

The target of one experiment is rat orexin 1 receptor (Rattus norvegicus, UniProt P56718). Nature of the experiment: Rat orexin 1 receptor radioligand binding (competitive, [3H]-SB674042, HEK293 cell preparations).
A further experiment concerns the target human orexin 2 receptor (Homo sapiens (Human), UniProt O43614). Nature of the experiment: Human orexin 2 receptor radioligand binding (competitive, [3H]-EMPA, HEK293 cell preparations).
Setting [1] is: rat orexin 1 receptor, [3H]-SB674042 competition binding, read-out: rOX1 Ki (nm).
Setting [2] is: human orexin 2 receptor, [3H]-EMPA competition binding, read-out: hOX2 Ki (nm).

Sequence of human orexin 2 receptor (O43614 whole entry): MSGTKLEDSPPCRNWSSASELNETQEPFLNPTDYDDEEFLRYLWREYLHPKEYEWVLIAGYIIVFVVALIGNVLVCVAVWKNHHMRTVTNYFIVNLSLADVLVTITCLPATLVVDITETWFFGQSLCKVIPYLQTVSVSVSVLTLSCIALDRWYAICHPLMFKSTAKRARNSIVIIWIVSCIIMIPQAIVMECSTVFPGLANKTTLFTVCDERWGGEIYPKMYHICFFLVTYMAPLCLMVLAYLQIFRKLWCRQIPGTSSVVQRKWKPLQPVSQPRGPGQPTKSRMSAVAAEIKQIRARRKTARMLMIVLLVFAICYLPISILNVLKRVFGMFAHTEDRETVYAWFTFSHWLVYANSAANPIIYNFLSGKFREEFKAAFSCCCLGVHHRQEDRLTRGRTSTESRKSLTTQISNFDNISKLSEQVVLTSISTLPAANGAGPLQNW

With `Cc1ccc(-n2cccn2)c(C(=O)N2C3CCC2C(COc2ccccn2)C3)n1` (racemic) [Example 95, (±)-(6-methyl-3-(1H-pyrazol-1-yl)pyridin-2-yl)(2-((pyridin-2-yloxy)methyl)-7-azabicyclo[2.2.1]heptan-7-yl)methanone], the Ki at rat orexin 1 receptor (setting [1]) is 0.247 µM; on human orexin 2 receptor (setting [2]), 3.7 µM.
On the same counts, the results for `COC(=O)c1cnc(N[C@@H]2C[C@H]3CC[C@@H]2N3C(=O)c2cccc(F)c2-c2ncccn2)cn1` [Example 275, methyl 5-(((1S,2R,4R)-7-(3-fluoro-2-(pyrimidin-2-yl)benzoyl)-7-azabicyclo[2.2.1]heptan-2-yl)amino)pyrazine-2-carboxylate] are over 10 µM and over 10 µM.
`Cc1cnn(-c2ccc(C)nc2C(=O)N2C3CCC2C(COc2ncc(F)cn2)C3)c1` (racemic) [Example 103, (±)-(2-(((5-fluoropyrimidin-2-yl)oxy)methyl)-7-azabicyclo[2.2.1]heptan-7-yl)(6-methyl-3-(4-methyl-1H-pyrazol-1-yl)pyridin-2-yl)methanone]: the Ki on rat orexin 1 receptor (setting [1]) was 1.7 µM; on human orexin 2 receptor (hOX2 Ki (nm)), 3.6 µM.
For `Cc1ccc(-c2ncccc2C)c(C(=O)N2C3CCC2C(COc2ccccn2)C3)n1` (racemic) [Example 90, (±)-(3,6′-dimethyl-[2,3′-bipyridin]-2′-yl)(2-((pyridin-2-yloxy)methyl)-7-azabicyclo[2.2.1]heptan-7-yl)methanone], in that order: 3 µM and over 10 µM.
For `O=C(c1ccccc1-n1nccn1)N1C2CCC1C(Nc1cccc(C(F)(F)F)n1)C2` (racemic) [Example 209, (±)-(2-(2H-1,2,3-triazol-2-yl)phenyl)(2-(6-(trifluoromethyl)pyridin-2-yl)amino)-7-azabicyclo[2.2.1]heptan-7-yl)methanone], the Ki came out at 1.1 µM at rat orexin 1 receptor (setting [1]) and 0.736 µM at human orexin 2 receptor (setting [2]).
In the case of `COc1cnc(C(=O)N2C3CCC2C(COc2ccc(F)cn2)C3)c(-n2nccn2)c1` (racemic) [Example 113, (±)-(2-(((5-fluoropyridin-2-yl)oxy)methyl)-7-azabicyclo[2.2.1]heptan-7-yl)(5-methoxy-3-(2H-1,2,3-triazol-2-yl)pyridin-2-yl)methanone], the inhibitory constant (Ki) is 3.4 µM on rat orexin 1 receptor (setting [1]) and 4.8 µM at human orexin 2 receptor (setting [2]).
On the same counts, the results for `COc1cccc(OC)c1C(=O)N1C2CCC1C(COc1ccc(F)cn1)C2` (racemic) [Example 106, (±)-(2,6-dimethoxyphenyl)(2-(((5-fluoropyridin-2-yl)oxy)methyl)-7-azabicyclo[2.2.1]heptan-7-yl)methanone] are 0.3 µM and 0.154 µM.
As for `Cc1ccc(N2CCNCC2)c(C(=O)N2C3CCC2C(COc2ccccn2)C3)n1` (racemic) [Example 86, (±)-(6-methyl-3-(piperazin-1-yl)pyridin-2-yl)(2-((pyridin-2-yloxy)methyl)-7-azabicyclo[2.2.1]heptan-7-yl)methanone], the Ki on rat orexin 1 receptor (setting [1]) and on human orexin 2 receptor (hOX2 Ki (nm)) was over 10 µM each time.
On to `Cc1ccc(N2CCCC2)c(C(=O)N2C3CCC2C(COc2ncc(F)cn2)C3)n1` (racemic) [Example 101, (±)-(2-(((5-fluoropyrimidin-2-yl)oxy)methyl)-7-azabicyclo[2.2.1]heptan-7-yl)(6-methyl-3-(pyrrolidin-1-yl)pyridin-2-yl)methanone], for which the Ki on rat orexin 1 receptor (setting [1]) came to 0.65 µM; at human orexin 2 receptor (setting [2]) it was 1.2 µM.
For `CCOc1ccc(C)nc1C(=O)N1C2CCC1C(Nc1cnc3ccccc3n1)C2` (single isomer, unassigned) [Example 229, (±)-(3-ethoxy-6-methylpyridin-2-yl)(2-(quinoxalin-2-ylamino)-7-azabicyclo[2.2.1]heptan-7-yl)methanone], in that order: over 10 µM and over 10 µM.
For `O=C(c1cncc2ccccc12)N1[C@@H]2CC[C@H]1[C@H](Nc1cnc(C(F)(F)F)cn1)C2` [Example 240, isoquinolin-4-yl((1S,2R,4R)-2-((5-(trifluoromethyl)pyrazin-2-yl)amino)-7-azabicyclo[2.2.1]heptan-7-yl)methanone], in that order: 0.4 µM and 2.1 µM.
For `CN(c1cnc(C(F)(F)F)cn1)[C@@H]1C[C@H]2CC[C@@H]1N2C(=O)c1cccc(F)c1-c1ncccn1` [Example 282, (3-fluoro-2-(pyrimidin-2-yl)phenyl)((1S,2R,4R)-2-(methyl(5-(trifluoromethyl)pyrazin-2-yl)amino)-7-azabicyclo[2.2.1]heptan-7-yl)methanone], in that order: 0.486 µM and over 10 µM.
Regarding `CCOc1ccc(C)nc1C(=O)N1C2CCC1C(Nc1ncc(C(F)(F)F)cn1)C2` (single isomer, unassigned) [Example 227, (±)-(3-ethoxy-6-methylpyridin-2-yl)(2-(5-(trifluoromethyl)pyrimidin-2-yl)amino)-7-azabicyclo[2.2.1]heptan-7-yl)methanone], the Ki at rat orexin 1 receptor (setting [1]) and on human orexin 2 receptor (setting [2]) was over 10 µM each time.
With `O=C(c1ccccc1-n1nccn1)N1C2CCC1C(Nc1ccccn1)C2` (racemic) [Example 215, (±)-(2-(2H-1,2,3-triazol-2-yl)phenyl)(2-(pyridin-2-ylamino)-7-azabicyclo[2.2.1]heptan-7-yl)methanone], the figures for the Ki at rat orexin 1 receptor (setting [1]) and on human orexin 2 receptor (setting [2]) were 1.7 µM and 9 µM, respectively.
For the compound `CCOc1ccc(C)nc1C(=O)N1[C@@H]2CC[C@H]1[C@H](Nc1cnc(C(F)(F)F)cn1)C2` [Example 287, (3-ethoxy-6-methylpyridin-2-yl)((1S,2R,4R)-2-((5-(trifluoromethyl)pyrazin-2-yl)amino)-7-azabicyclo[2.2.1]heptan-7-yl)methanone], the Ki at rat orexin 1 receptor (setting [1]) worked out at 0.472 µM; on human orexin 2 receptor (setting [2]), 0.767 µM.
`Cc1ccc(-n2nccn2)c(C(=O)N2C3CCC2C(COc2ccc(C(F)(F)F)cn2)C3)n1` (racemic) [Example 47, (±)-(6-methyl-3-(2H-1,2,3-triazol-2-yl)pyridin-2-yl)(2-(((5-(trifluoromethyl)pyridin-2-yl)oxy)methyl)-7-azabicyclo[2.2.1]heptan-7-yl)methanone]: the Ki at rat orexin 1 receptor (rOX1 Ki (nm)) turned out to be 0.46 µM; at human orexin 2 receptor (setting [2]), 0.418 µM.
`Cc1ccc(C(=O)N2C3CCC2C(Nc2ccc(C(F)(F)F)cn2)C3)c(-n2nccn2)n1` (racemic) [Example 189, (±)-(6-methyl-2-(2H-1,2,3-triazol-2-yl)pyridin-3-yl)(2-(5-(trifluoromethyl)pyridin-2-yl)amino)-7-azabicyclo[2.2.1]heptan-7-yl)methanone]: the Ki came to 0.766 µM on rat orexin 1 receptor (setting [1]) and 1.5 µM on human orexin 2 receptor (hOX2 Ki (nm)).
As for `Cc1ccc(-n2cccn2)c(C(=O)N2C3CCC2C(COc2ncc(F)cn2)C3)n1` (racemic) [Example 104, (±)-(2-(((5-fluoropyrimidin-2-yl)oxy)methyl)-7-azabicyclo[2.2.1]heptan-7-yl)(6-methyl-3-(1H-pyrazol-1-yl)pyridin-2-yl)methanone], the Ki is 1.1 µM on rat orexin 1 receptor (rOX1 Ki (nm)) and 4.6 µM on human orexin 2 receptor (hOX2 Ki (nm)).
As for `Cc1ccc(-n2nccn2)c(C(=O)N2C3CCC2C(Nc2ncc(C(F)(F)F)cn2)C3)n1` (racemic) [Example 223, (±)-(6-methyl-3-(2H-1,2,3-triazol-2-yl)pyridin-2-yl)(2-((5-(trifluoromethyl)pyrimidin-2-yl)amino)-7-azabicyclo[2.2.1]heptan-7-yl)methanone], the inhibition constant (Ki) on rat orexin 1 receptor (rOX1 Ki (nm)) was determined as 0.55 µM; on human orexin 2 receptor (setting [2]) it was 4 µM.
In the case of `CCOc1ccc(C)nc1C(=O)N1C2CCC1C(COc1ccc(F)cn1)C2` (racemic) [Example 118, (±)-(3-ethoxy-6-methylpyridin-2-yl)(2-(((5-fluoropyridin-2-yl)oxy)methyl)-7-azabicyclo[2.2.1]heptan-7-yl)methanone], the Ki at rat orexin 1 receptor (setting [1]) came to 0.44 µM; on human orexin 2 receptor (setting [2]) it was 2.2 µM.
As for `Cc1ccc(-n2nccn2)c(C(=O)N2C3CCC2C(Nc2ncc(C(F)(F)F)cn2)C3)n1` (racemic) [Example 228, (±)-(6-methyl-3-(2H-1,2,3-triazol-2-yl)pyridin-2-yl)(2-((5-(trifluoromethyl)pyrimidin-2-yl)amino)-7-azabicyclo[2.2.1]heptan-7-yl)methanone], the Ki on rat orexin 1 receptor (rOX1 Ki (nm)) and at human orexin 2 receptor (setting [2]) was over 10 µM each time.
As for `CCOc1ccc(C)nc1C(=O)N1C2CCC1C(Nc1nc(C)cc(C)n1)C2` (racemic) [Example 203, (±)-(2-((4,6-dimethylpyrimidin-2-yl)amino)-7-azabicyclo[2.2.1]heptan-7-yl)(3-ethoxy-6-methylpyridin-2-yl)methanone], the Ki on rat orexin 1 receptor (setting [1]) is over 10 µM; at human orexin 2 receptor (setting [2]), 0.49 µM.
For `Cc1cc(C)nc(NC2CC3CCC2N3C(=O)c2nc(C)ccc2-n2nccn2)n1` (racemic) [Example 201, (±)-(2-((4,6-dimethylpyrimidin-2-yl)amino)-7-azabicyclo[2.2.1]heptan-7-yl)(6-methyl-3-(2H-1,2,3-triazol-2-yl)pyridin-2-yl)methanone], in that order: 3.7 µM and 1.1 µM.
`COc1c(F)cccc1C(=O)N1C2CCC1C(Nc1ccc(Br)cn1)C2` (racemic) [Example 218, (±)-(2-((5-bromopyridin-2-yl)amino)-7-azabicyclo[2.2.1]heptan-7-yl)(3-fluoro-2-methoxyphenyl)methanone]: the inhibitory constant (Ki) on rat orexin 1 receptor (rOX1 Ki (nm)) amounted to 2.7 µM; at human orexin 2 receptor (setting [2]), 6.7 µM.
As to `COc1c(F)cccc1C(=O)N1C2CCC1C(COc1ccc(Br)cn1)C2` (racemic) [Example 50, (±)-(2-(((5-bromopyridin-2-yl)oxy)methyl)-7-azabicyclo[2.2.1]heptan-7-yl)(3-fluoro-2-methoxyphenyl)methanone], the Ki on rat orexin 1 receptor (setting [1]) was 0.46 µM; on human orexin 2 receptor (setting [2]), 4.4 µM.
Regarding `Cc1cc(-c2ccc(C)nc2C(=O)N2C3CCC2C(COc2ncc(F)cn2)C3)on1` (racemic) [Example 99, (±)-(2-(((5-fluoropyrimidin-2-yl)oxy)methyl)-7-azabicyclo[2.2.1]heptan-7-yl)(6-methyl-3-(3-methylisoxazol-5-yl)pyridin-2-yl)methanone], the figures for the Ki on rat orexin 1 receptor (rOX1 Ki (nm)) and on human orexin 2 receptor (setting [2]) were 1.5 µM and 2.9 µM, respectively.
